Reference: patent US20240041764A1, “Sustained-Release Oral Fosamprenavir Formulation for Treatment of Reflux” (The Medical College of Wisconsin, Inc., priority 2022, published 2024)
Entries after “also recorded” stand apart in the source; their conditions may differ.

Assays:
[1] = system: LPR mouse model (pepsin-mediated laryngeal damage); assay: in vivo LPR mouse model: mechanical injury plus laryngeal pepsin instillation, H&E histology; details: for protection against pepsin-mediated laryngeal damage (histology): 0.3 mg/ml pepsin pH7, 4 weeks
Excerpt: Three replicate animals per treatment condition were anticipated to suffice for verification of reproducibility in each experiment without excessive use of animal life. The three mice were randomly allocated to treatment groups. No data were excluded from analysis.
Six-week-old female Jackson A/J mice (Jackson Laboratory, Bar Harbor, ME) were fed D-62 powdered Wattenberg diet, 2 g/mouse/day^95 and allowed to acclimate for one week upon arrival prior to experiments. In accord with previously established methods for modeling aerodigestive tract damage attributed to GERD and LPR,^1,95-99 mechanical injury applied during the first two weeks of a four-week treatment course was used to predispose the laryngeal mucosa to chemical injury by pepsin/acid applied throughout the four weeks. […] Briefly, anesthetized mice were suspended by upper teeth on a slanted board under an operating microscope.
In a preliminary experiment to validate the LPR mouse model (i.e. laryngeal damage by pepsin at neutral and acidic pH), 20 μl saline (solvent control) or 0.3 mg/ml pepsin at pH7.0 or 4.0 were provided to mice (n=3) by laryngeal instillation at 24, 48, and 72 hours after mechanical injury during weeks 1 and 2 (FIG. 6); laryngeal instillation without wounding (3 days/week) continued during weeks 3 and 4. […] Mice were sacrificed at conclusion of the fourth week.
To test the protective effect of HIV protease inhibitors on pepsin-mediated damage in vivo, inhibitors were delivered by aerosol or gavage concurrently with wounding (days 2, 8) and solvent/pepsin instillation (days 3-5, 9-11, 16-18 and 23-25). Aerosol or gavage was provided on days 1-5, 8-12, 15-19, and 22-25, and mice sacrificed day 26. Mice were anesthetized with isoflurane (3% in 2.5LPM, 3-5 minutes prior to procedures) as opposed to Avertin due to frequency. […] Aerosol was generated as described^100. Briefly, a 10 ml suspension of drug in ethanol was placed in the baffle, such that the concentration would remain constant at the equilibrium solubility. Droplets of ethanol containing dissolved drug were generated by an ultrasonic atomizer (nominal frequency 1.7 MHz) and entrained by air at a flow rate of 0.5 LPM with a custom-built glass baffle (UMN Department of Chemistry Glass Shop). The aerosol cloud was then passed through a cylindrical drying column containing an annular ring of charcoal. The ethanol was removed and the emanating dry aerosol particles of pure drug were then directed into the exposure chamber. The mass deposited on filters was measured gravimetrically and total output rate (mg/min) was determined. The aerosol concentration (mass/volume of air) was calculated by dividing the total output rate by the air flow rate (0.5 LPM). The inhaled mass of drug (Minh) for each mouse was defined as Minh=[Aerosol]*RMV*t, where Aerosol is the aerosol concentration of drug, RMV is the respiratory minute volume of the mice (0.025 L/min), and t is the aerosol exposure time. […] Actual mass deposited was not determined but anticipated to be 10% of inhaled mass (the deposition fraction of […] aerosol particles in mice).
Tissues were collected, fixed in paraformaldehyde, embedded in paraffin and 4 um sections stained with hematoxylin and eosin (H&E) via automated stainer. Slides were reviewed by a board-certified pathologist (JM) blinded to treatment groups.

porcine pepsin = target: T1, porcine pepsin (Sus scrofa, UniProt P00791); assay: peptic activity assay, fluorescence polarization with casein-Alexa647; format: biochemical; details: for IC50 for pepsin: in vitro binding and inhibition assays, IC50 from kinetic traces
T1 construct: purchased Worthington Biochemical Corporation
Method: To examine whether HIV protease inhibitors bound and inhibited pepsin, we developed assays based on fluorescence polarization which measures size-dependent molecular rotation thereby permitting detection of degradation, association and dissociation events^80. A competitive binding assay was designed employing pepstatin, an inhibitor of sub-nanomolar affinity^81. Pepstatin-Alexa647 was synthesized by dissolving 1 mg pepstatin A (Sigma-Aldrich) in a 50:50 mixture of dimethylformamide (DMF) and dimethylsulfoxide (DMS) followed by the addition of N,N,N′,N′-Tetramethyl-O—(N-succinimidyl)uronium tetrafluoroborate (0.6 mg) and trimethylamine (10 μL) DMF. The mixture was stirred for 1 hour, after which 1 mg Alexa Fluor 647 Cadaverine, Disodium Salt (ThermoFisher Scientific) was added. After 2 hours, the solvents were evaporated under high vacuum (35° C.) and residue partially dissolved in 10% methanol and transferred onto a C18 cartridge (Waters Corporation, Milford, MA). Increasing percentages of methanol were used for the elution. […] An enzymatic inhibition assay was designed using casein substrate.^82 Bovine alpha casein (Sigma-Aldrich, St. Louis, MO) was labeled with Alexa Fluor 647 Carboxylic Acid, Succinimidyl Ester (ThermoFisher Scientific, Waltham, MA) as described.^82 Briefly, the two were combined at 2.5 ug/mg label to protein ratio in 0.1M sodium bicarbonate for 15 minutes and labeled casein was separated from unbound label in a Sephadex G-25 (Sigma-Aldrich) column comprised of 90×5 mm packed beads in a glass Pasteur pipette, eluted with dPBS pH7.4 (ThermoFisher Scientific). The fast-moving band (casein-bound fluorophore) was collected in ˜0.4 ml volume. Concentration of resultant probe (casein-Alexa647 in PBS-azide) was estimated via spectrophotometry using Beer's law (Implen Nanophotometer, Implen, Inc. Westlake Village, CA).
Assays were optimized using ranges of 0.3-1000 μM unlabeled pepstatin, 100-500 nM pepstatin-Alexa647 or casein-Alexa647 probe, 0.003-3 U/μl porcine pepsin (Worthington Biochemical Corporation, Lakewood, NJ), and 5-37.5% DMSO (HIV protease inhibitor diluent) in 0.1 M HCl, pH 1 with 0.01% v/v Tween-20 in 20 μl volumes in 384-well black optical plates (Nunc, Roskilde, DK) and read on a BioTek Cytation 5 (BioTek Instruments, Winooski, VT) with far red FP filter cube (excitation/emission 620/680 nm). Unlabeled pepstatin dose-response curves were used to ensure that the assays were responsive to pepsin inhibition. […] Assays were performed twice with triplicate reactions read for five minutes and mean mP plotted against probe concentration (binding assay) or read at <2 minutes intervals over 30 minutes with mean mP of plotted over time (activity assay). Half maximal inhibitory concentration (IC50) of inhibitors were calculated from kinetic traces analyzed using an online tool (https://icekat.herokuapp.com/icekat)^83. mP was normalized to blank (absent inhibitor) to derive percent bound or activity.

T1 sequence (P00791 60-385): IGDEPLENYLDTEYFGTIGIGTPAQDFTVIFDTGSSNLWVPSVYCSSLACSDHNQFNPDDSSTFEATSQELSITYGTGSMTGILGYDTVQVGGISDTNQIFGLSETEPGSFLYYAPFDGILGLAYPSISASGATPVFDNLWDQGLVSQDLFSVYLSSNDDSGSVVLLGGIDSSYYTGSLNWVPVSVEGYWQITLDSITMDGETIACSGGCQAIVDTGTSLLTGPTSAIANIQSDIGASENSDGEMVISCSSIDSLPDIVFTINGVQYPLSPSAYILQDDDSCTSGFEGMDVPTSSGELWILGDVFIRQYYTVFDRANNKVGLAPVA

SMILES: CC(C)CN(C[C@@H](O)[C@H](Cc1ccccc1)NC(=O)O[C@H]1CO[C@H]2OCC[C@H]21)S(=O)(=O)c1ccc(N)cc1 [darunavir, [(3aS,4R,6aR)-2,3,3a,4,5,6a-hexahydrofuro[2,3-b]furan-4-yl]N-[(2S,3R)-4-[(4-aminophenyl)sulfonyl-(2-methylpropyl)amino]-3-hydroxy-1-phenylbutan-2-yl]carbamate]
- laryngeal histology, drug with saline (solvent), no pepsin ([1]; aerosol): absent
- protection against pepsin-mediated laryngeal damage (histology) ([1]; aerosol, inhaled mass 0.93 mg/kg/day fosamprenavir, 12 mg/kg/day darunavir): moderate protection against pepsin-mediated damage; also recorded: mild protection against pepsin-mediated damage
- laryngeal histology, drug with saline (solvent), no pepsin ([1]; gavage): Mild reactivity
- protection against pepsin-mediated laryngeal damage (histology) ([1]; gavage, 20 mg/kg/day fosamprenavir (Lexiva), 8.6 mg/kg/day darunavir (Prezista)): obscured the ability to detect its effect on pepsin-mediated damage and not and appeared similar
- laryngeal histology, drug with saline (solvent), no pepsin ([1]; gavage, listed as Darunavir): mild reactivity (rare intraepithelial lymphocytes)
- inhibited pepsin (peptic activity) (porcine pepsin; 200 nM probe, 0.01 U/μL pepsin, 5% DMSO, 0.1 M HCl pH 1): low micromolar
- IC50 for pepsin (porcine pepsin): low micromolar range
- IC50 for pepsin (porcine pepsin; listed as Darunavir): lowest IC50
